Columns and labels:
human MDR1 P-gp = assay: Efflux in MDCK cells transfected with the human MDR1 gene (MDCK-PGP permeability); format: in vitro ADME, canine; conditions: dog, pH 7.4, 37° C.; for efflux ratio: PEBA/PEAB; for Papp A→B: apical-to-basal apparent permeability (PEAB)
Protocol: Assessment of Efflux in Madin-Darby Canine Kidney (MDCK) Cells Transfected with the 30 Human MDR1 Gene to Assess Brain Penetration (Drug Metabolism and Disposition February 2008, 36 (2) 268-275; DOI: https://doi.org/10.1124/dmd.107.017434) Apparent permeability coefficients (PE) of the compounds across the MDCK-MDR1 cell monolayers are measured (pH 7.4, 37° C.) in apical-to-basal (AB) and basal-to-apical (BA) transport direction. AB permeability (PEAB) represents drug absorption from the blood into the 35 brain and BA permeability (PEBA) drug efflux from the brain back into the blood via both passive permeability as well as active transport mechanisms mediated by efflux and uptake transporters that are expressed on the MDCK-MDR1 cells, predominantly by the overexpressed human MDR1 P-gp. The compounds are assigned to permeability/absorption classes by comparison of the AB permeabilities with the AB permeabilities of reference compounds with known in vitro permeability and oral absorption in the human. Identical or similar permeabilities in both transport directions indicate passive permeation, vectorial permeability points to additional active transport mechanisms. Higher PEBA than PEAB indicates the involvement of active efflux mediated by MDR1 P-gp. Active transport is concentration-dependently saturable.
MDCK-MDR1 cells (1-2×10e5 cells/1 cm2 area) are seeded on filter inserts (Costar transwell polycarbonate or PET filters, 0.4 μm pore size) and cultured (DMEM) for 7 days. Subsequently, the MDR1 expression is boosted by culturing the cells with 5 mM sodium butyrate in full medium for 2 days. Compounds are dissolved in appropriate solvent (like DMSO, 1-20 mM stock solutions). Stock solutions are diluted with HTP-4 buffer (128.13 mM NaCl, 5.36 mM KCl, 1 mM MgSO4, 1.8 mM CaCl2, 4.17 mM NaHCO3, 1.19 mM Na2HPO4×7H2O, 0.41 mM NaH2PO4xH2O, 15 mM HEPES, 20 mM glucose, 0.25% BSA, pH 7.4) to prepare the transport solutions (0.1-300 μM compound, final DMSO <=0.5%). The transport solution (TL) is applied to the apical or basolateral donor side for measuring A-B or B-A permeability (3 filter replicates), respectively. The receiver side contains the same buffer as the donor side. Samples are collected at the start and end of experiment from the donor and at various time intervals for up to 2 hours also from the receiver side for concentration measurement by HPLC-MS/MS or scintillation counting. Sampled receiver volumes are replaced with fresh receiver solution.

[1] = Metabolic stability in human liver microsomes (Human MST); format: in vitro ADME; conditions: pooled human liver microsomes, pH 7.6; human liver microsomes 1 mg/mL, 1 μM compound, NADPH 1 mM, 37° C.; read-out: Human MST t1/2
Protocol: Assessment of Metabolic Stability in Human Liver Microsomes (Human MST) The metabolic stability of the compounds according to the invention may be investigated as follows: The metabolic degradation of the test compound is assayed at 37° C. with pooled human liver microsomes. The final incubation volume of 100 μL per time point contains TRIS buffer pH 7.6 at room temperature (0.1 M), MgCl2 (5 mM), microsomal protein (1 mg/mL) and the test compound at a final concentration of 1 μM. Following a short pre-incubation period at 37° C., the reactions are initiated by addition of beta-nicotinamide adenine dinucleotide phosphate, reduced form (NADPH, 1 mM), and terminated by transferring an aliquot into solvent after different time points. After centrifugation (10000 g, 5 min), an aliquot of the supernatant is assayed by LCMS/MS for the amount of parent compound. The half-life (t½) is determined by the slope of the semi-logarithmic plot of the concentration-time profile.

α5β2γ2 GABAA receptor = target: T1, α5β2γ2 GABAA receptor (Homo sapiens, UniProt P18507+P31644); assay: Assay B: modulation of α5β2γ2 GABAA receptor, two-electrode voltage clamp in oocytes; format: cell-based; conditions: for EC50: oocytes, TEVC, co-application with GABA 0.5 μM (EC5-20), read-out: Assay B: GABAA α5β3γ2 EC50
T1 sequence (P31644 32-462): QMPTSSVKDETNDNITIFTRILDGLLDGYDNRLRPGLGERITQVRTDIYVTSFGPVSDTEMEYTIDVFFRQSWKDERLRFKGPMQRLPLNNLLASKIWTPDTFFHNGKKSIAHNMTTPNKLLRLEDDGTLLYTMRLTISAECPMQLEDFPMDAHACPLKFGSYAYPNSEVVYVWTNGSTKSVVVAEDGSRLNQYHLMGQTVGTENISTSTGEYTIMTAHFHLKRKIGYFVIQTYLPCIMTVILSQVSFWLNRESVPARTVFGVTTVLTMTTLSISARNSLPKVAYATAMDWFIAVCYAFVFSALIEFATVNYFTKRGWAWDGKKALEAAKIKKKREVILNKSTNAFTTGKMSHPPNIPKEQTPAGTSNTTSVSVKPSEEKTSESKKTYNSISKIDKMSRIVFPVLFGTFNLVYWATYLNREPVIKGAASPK
T1 sequence (P18507 40-376 limits assumed): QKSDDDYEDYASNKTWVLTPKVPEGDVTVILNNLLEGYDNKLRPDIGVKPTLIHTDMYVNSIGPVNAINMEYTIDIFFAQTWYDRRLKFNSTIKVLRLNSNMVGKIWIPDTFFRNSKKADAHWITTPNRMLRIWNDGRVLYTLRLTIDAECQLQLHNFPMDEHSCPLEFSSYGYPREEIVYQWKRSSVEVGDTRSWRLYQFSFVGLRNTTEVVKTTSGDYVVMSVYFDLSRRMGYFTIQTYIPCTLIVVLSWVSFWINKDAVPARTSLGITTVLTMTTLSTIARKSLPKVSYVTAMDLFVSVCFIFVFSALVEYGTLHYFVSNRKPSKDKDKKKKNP
Protocol: Assay B: In vitro evaluation of modulation of α5β2γ2 GABAA receptor.
Modulatory efficacy of compounds of formula (I) is determined electrophysiological recordings in oocytes using the two-electrode voltage clamp (TEVC) technique. Oocytes are injected with cRNA for human GABAA receptor subunits α5, β2 and γ2 in a 3:1:3 ratio and modulatory efficacy is evaluated by co-applications with a submaximal EC5-20 GABA concentration (0.5 μM) termed GABA control. As a standard, the compounds are tested in five concentrations (3.16, 0.316, 0.0316, 0.00316 and 0.000316 μM) on each oocyte starting with the lowest concentration. Background subtracted peak current amplitudes are normalized to the respective GABA control current, converted to % change and depicted +/−S.E.M. as a function of increasing compound concentrations. Plotted datapoints are fitted to the empirical Hill equation using non-linear regression. 95% confidence intervals for maximal efficacy (Bottom) and potency (Log EC50) are derived from this fitting routine.

Row | SMILES | efflux ratio (human MDR1 P-gp) | Papp A→B (human MDR1 P-gp) [×10⁻⁶ cm/s] | half-life at 1 μM [1] [h] | Assay B: GABAA α5β3γ2 Emax vs GABA (α5β2γ2 GABAA receptor) [%] | EC50 (α5β2γ2 GABAA receptor) [nM]
1 | Cc1cc(-c2ccc(OCc3c(C)nnn3-c3ccc(C(F)F)cc3)nn2)cnn1 [Example 11] | 3.7 | 18.8 | > 2.17 | -17.6 | 10.3
2 | Cc1nnn(-c2ccc(C(F)F)cc2)c1COc1ccc(-n2ccc(C(F)(F)F)n2)nn1 [Example 24] | 0.4 | 51.3 | 0.517 | -9 | 76.9
3 | Cc1nnn(-c2ccc(C(F)F)cc2)c1COc1ccc(-n2cc(C(F)(F)F)cn2)nn1 [Example 25] | 0.3 | 56.1 | > 2.17 | -0.7 | 
4 | Cc1ncn(-c2ccc(OCc3c(C)nnn3-c3ccc(C(F)F)cc3)nn2)n1 [Example 33] | 0.9 | 52.2 | > 2.17 | -22 | 11.2
5 | CC(=O)c1cn(-c2ccc(OCc3c(C)nnn3-c3ccc(C(F)F)cc3)nn2)cn1 [Example 32] | 3.4 | 17.6 | > 2.17 | -22.8 | 5.7
6 | Cc1ncc(-c2ccc(OCc3c(C)nnn3-c3ccc(C(F)F)cc3)nn2)o1 [Example 6] | 0.7 | 67.8 | > 2.17 | -33.3 | 6.9
7 | Cc1nnn(-c2ccc(C(F)F)cc2)c1COc1ccc(-n2ccc(C(N)=O)n2)nn1 [Example 21] | 1.2 | 25 | 0.617 | 2 | 
8 | Cc1nnn(-c2ccc(C(F)F)cc2)c1COc1ccc(-c2cnn(C3CC3)c2)nn1 [Example 9] | 0.8 | 42.4 | > 2.17 | -12 | 47.5

Further compounds by falling EC50 (α5β2γ2 GABAA receptor), results first:

Row | efflux ratio (human MDR1 P-gp) | Papp A→B (human MDR1 P-gp) [×10⁻⁶ cm/s] | half-life at 1 μM [1] [h] | Assay B: GABAA α5β3γ2 Emax vs GABA (α5β2γ2 GABAA receptor) [%] | EC50 (α5β2γ2 GABAA receptor) [nM] | SMILES
9 | 1.1 | 28.5 | > 2.17 | -27.5 | 3.7 | Cc1nnn(-c2ccc(C(F)F)cc2)c1COc1ccc(-n2cnc(Cl)c2)nn1 [Example 18]
10 | 3.8 | 14.6 | > 2.17 | -47.3 | 2.3 | CNC(=O)c1cn(-c2ccc(OCc3c(C)nnn3-c3ccc(C(F)F)cc3)nn2)cn1 [Example 14]
11 | 2.8 | 18.8 | 0.433 | -29 | 1.8 | COC(=O)c1cn(-c2ccc(OCc3c(C)nnn3-c3ccc(C(F)F)cc3)nn2)cn1 [Example 29]
12 | 1.1 | 31.8 | > 2.17 | -42.5 | 1.4 | Cc1nnn(-c2ccc(C(F)F)cc2)c1COc1ccc(-n2cnc(C(F)F)c2)nn1 [Example 15]

— patent US10941137B2, “Difluoromethyl-phenyl triazoles” (Boehringer Ingelheim International GmbH, priority 2018, dated 2021)
